{"source": "ChEMBL document CHEMBL1134799", "about": "“4,1-Benzoxazepinone analogues of efavirenz (Sustiva) as HIV-1 reverse transcriptase inhibitors” (Bioorg Med Chem Lett, 2001)", "key": {"[1]": {"target": "Human immunodeficiency virus type 1 reverse transcriptase (Human immunodeficiency virus 1) (UniProt Q72547)", "description": "Compound was evaluated for its ability to inhibit the wild type RF strain of HIV-1"}, "[2]": {"target": "T1, Human immunodeficiency virus type 1 reverse transcriptase (Human immunodeficiency virus 1, UniProt Q72547)", "experiment": "Compound was evaluated for its ability to inhibit HIV-1 Reverse Transcriptase in an in vitro enzyme assay"}, "[3]": {"system": "Human immunodeficiency virus type 1 reverse transcriptase (Human immunodeficiency virus 1), Q72547 [K103N]", "description": "Compound was evaluated for its ability to inhibit a virus containing the clinically relevant K103N mutation"}, "[4]": {"experiment": "Total plasma concentration at 24 hr at a dose of 10 mg/kg when administered orally to rhesus monkey", "assay_type": "ADME, organism-based, Macaca mulatta", "parameters": "dose 10 mg/kg, route oral", "settings": "po, read-out: C24h"}, "[5]": {"experiment": "Tmax was determined", "assay_type": "ADME"}, "[6]": {"experiment": "Cmax was determined", "assay_type": "ADME, organism-based", "settings": "in vivo"}, "[7]": {"experiment": "Area under curve obtained at a dose of 10 mg/kg when administered orally to rhesus monkey", "assay_type": "ADME, organism-based, Macaca mulatta", "parameters": "dose 10 mg/kg, route oral", "settings": "in vivo, po"}, "[8]": {"target": "T1, Human immunodeficiency virus type 1 reverse transcriptase", "experiment": "Inhibition of HIV-1 Reverse Transcriptase in an in vitro enzyme assay"}}, "note": "pIC50: −log10 of the molar value."}
{"smiles": "O=C1Nc2ccc(Cl)cc2C(C#CC2CC2)(C(F)(F)F)OC1CC(F)(F)F", "note": "(centres undefined)", "values": [{"measurement": "IC90", "setting": "[1]", "result": 0.0168, "unit": "µM"}, {"measurement": "pIC50", "setting": "[2]", "result": 6.63}]}
{"smiles": "O=C1COC(C#Cc2ccccc2)(C(F)(F)F)c2cc(Cl)ccc2N1", "note": "(centres undefined)", "values": [{"measurement": "IC90", "setting": "[3]", "result": 4.1, "unit": "µM"}, {"measurement": "IC90", "setting": "[1]", "result": 0.0243, "unit": "µM"}, {"measurement": "pIC50", "setting": "[2]", "result": 5.48}]}
{"smiles": "CC1OC(/C=C/C2CC2)(C(F)(F)F)c2cc(F)ccc2NC1=O", "note": "(centres undefined)", "values": [{"measurement": "IC90", "setting": "[3]", "result": 0.118, "unit": "µM"}, {"measurement": "IC90", "setting": "[1]", "result": 0.0076, "unit": "µM"}, {"measurement": "pIC50", "setting": "[2]", "result": 6.89}]}
{"smiles": "CCCC1OC(C#CC2CC2)(C(F)(F)F)c2cc(Cl)ccc2NC1=O", "note": "(centres undefined)", "values": [{"measurement": "IC90", "setting": "[1]", "result": 0.0172, "unit": "µM"}, {"measurement": "pIC50", "setting": "[2]", "result": 6.10}]}
{"smiles": "CC1OC(/C=C/C2CC2)(C(F)(F)F)c2c(ccc(F)c2F)NC1=O", "note": "(centres undefined)", "values": [{"measurement": "IC90", "setting": "[3]", "result": 0.081, "unit": "µM"}, {"measurement": "IC90", "setting": "[1]", "result": 0.0052, "unit": "µM"}, {"measurement": "pIC50", "setting": "[2]", "result": 6.76}]}
{"smiles": "CC(C)C#CC1(C(F)(F)F)OCC(=O)Nc2ccc(Cl)cc21", "note": "(centres undefined)", "values": [{"measurement": "IC90", "setting": "[3]", "result": 0.784, "unit": "µM"}, {"measurement": "IC90", "setting": "[1]", "result": 0.0097, "unit": "µM"}, {"measurement": "pIC50", "setting": "[2]", "result": 6.37}]}
{"smiles": "C[C@@H]1O[C@](C#CC2CC2)(C(F)(F)F)c2cc(Cl)ccc2NC1=O", "note": "(relative stereo)", "values": [{"measurement": "concentration at 24 h", "setting": "[4]", "result": 1.14, "unit": "µM"}, {"measurement": "IC90", "setting": "[3]", "result": 0.029, "unit": "µM"}, {"measurement": "IC90", "setting": "[1]", "result": 0.0022, "unit": "µM"}, {"measurement": "pIC50", "setting": "[2]", "result": 7.09}, {"measurement": "Tmax", "setting": "[5]", "result": 6, "unit": "h"}, {"measurement": "Cmax", "setting": "[6]", "result": 1.67, "unit": "µM"}, {"measurement": "AUC", "setting": "[7]", "result": 30, "unit": "µM·h"}]}
{"smiles": "CC1OC(C#CC2CC2)(C(F)(F)F)c2c(ccc(F)c2F)NC1=O", "note": "(centres undefined)", "values": [{"measurement": "IC90", "setting": "[3]", "result": 0.075, "unit": "µM"}, {"measurement": "IC90", "setting": "[1]", "result": 0.0058, "unit": "µM"}, {"measurement": "pIC50", "setting": "[2]", "result": 6.71}]}
{"smiles": "CCC1OC(/C=C/C2CC2)(C(F)(F)F)c2cc(F)ccc2NC1=O", "note": "(centres undefined)", "values": [{"measurement": "IC90", "setting": "[3]", "result": 0.07, "unit": "µM"}, {"measurement": "IC90", "setting": "[1]", "result": 0.0025, "unit": "µM"}, {"measurement": "pIC50", "setting": "[2]", "result": 6.82}]}
{"smiles": "C[C@@H]1O[C@](C#CC2CC2)(C(F)(F)F)c2cc(F)ccc2NC1=O", "values": [{"measurement": "IC90", "setting": "[3]", "result": 0.333, "unit": "µM"}, {"measurement": "IC90", "setting": "[1]", "result": 0.0052, "unit": "µM"}, {"measurement": "pIC50", "setting": "[2]", "result": 7.02}]}
{"smiles": "O=C1COC(C#Cc2ccoc2)(C(F)(F)F)c2cc(Cl)ccc2N1", "note": "(centres undefined)", "values": [{"measurement": "IC90", "setting": "[1]", "result": 0.0475, "unit": "µM"}, {"measurement": "pIC50", "setting": "[2]", "result": 5.60}]}
{"smiles": "O=C1COC(C#CC2CC2)(C(F)(F)F)c2cc(Cl)ccc2N1", "note": "(centres undefined)", "values": [{"measurement": "IC90", "setting": "[3]", "result": 1.4, "unit": "µM"}, {"measurement": "IC90", "setting": "[1]", "result": 0.0091, "unit": "µM"}, {"measurement": "pIC50", "setting": "[2]", "result": 6.36}]}
{"smiles": "CCC1OC(/C=C/C2CC2)(C(F)(F)F)c2cc(Cl)ccc2NC1=O", "note": "(centres undefined)", "values": [{"measurement": "IC90", "setting": "[3]", "result": 0.013, "unit": "µM"}, {"measurement": "IC90", "setting": "[1]", "result": 0.0078, "unit": "µM"}, {"measurement": "pIC50", "setting": "[2]", "result": 6.73}]}
{"smiles": "CC[C@@H]1O[C@](C#CC2CC2)(C(F)(F)F)c2cc(F)ccc2NC1=O", "values": [{"measurement": "IC90", "setting": "[3]", "result": 0.117, "unit": "µM"}, {"measurement": "IC90", "setting": "[1]", "result": 0.0053, "unit": "µM"}, {"measurement": "pIC50", "setting": "[2]", "result": 6.77}]}
{"smiles": "O=C1Nc2ccc(Cl)cc2[C@@](C#CC2CC2)(C(F)(F)F)N1", "values": [{"measurement": "IC90", "setting": "[3]", "result": 0.01, "unit": "µM"}, {"measurement": "IC90", "setting": "[1]", "result": 0.002, "unit": "µM"}, {"measurement": "pIC50", "setting": "[2]", "result": 7.49}]}
{"smiles": "CC(C)C1OC(C#CC2CC2)(C(F)(F)F)c2cc(Cl)ccc2NC1=O", "note": "(centres undefined)", "values": [{"measurement": "IC90", "setting": "[1]", "result": 0.0207, "unit": "µM"}, {"measurement": "pIC50", "setting": "[2]", "result": 6.22}]}
{"smiles": "C[C@H]1O[C@](C#CC2CC2)(C(F)(F)F)c2cc(F)ccc2NC1=O", "values": [{"measurement": "IC90", "setting": "[1]", "result": 0.189, "unit": "µM"}, {"measurement": "pIC50", "setting": "[2]", "result": 5.71}]}
{"smiles": "CC[C@H]1O[C@](C#CC2CC2)(C(F)(F)F)c2cc(F)ccc2NC1=O", "values": [{"measurement": "IC90", "setting": "[1]", "result": 0.0874, "unit": "µM"}, {"measurement": "pIC50", "setting": "[2]", "result": 5.94}]}
{"smiles": "C[C@H]1O[C@](C#CC2CC2)(C(F)(F)F)c2cc(Cl)ccc2NC1=O", "values": [{"measurement": "IC90", "setting": "[3]", "result": 1.13, "unit": "µM"}, {"measurement": "IC90", "setting": "[1]", "result": 0.007, "unit": "µM"}, {"measurement": "pIC50", "setting": "[2]", "result": 6.60}]}
{"smiles": "CCC1OC(C#CC2CC2)(C(F)(F)F)c2cc(Cl)ccc2NC1=O", "note": "(centres undefined)", "values": [{"measurement": "IC90", "setting": "[3]", "result": 0.139, "unit": "µM"}, {"measurement": "IC90", "setting": "[1]", "result": 0.0084, "unit": "µM"}, {"measurement": "pIC50", "setting": "[8]", "result": 6.41}]}
{"smiles": "CC1OC(/C=C/C2CC2)(C(F)(F)F)c2cc(Cl)ccc2NC1=O", "note": "(centres undefined)", "values": [{"measurement": "concentration at 24 h", "setting": "[4]", "result": 1.4, "unit": "µM"}, {"measurement": "IC90", "setting": "[3]", "result": 0.035, "unit": "µM"}, {"measurement": "IC90", "setting": "[1]", "result": 0.0025, "unit": "µM"}, {"measurement": "pIC50", "setting": "[2]", "result": 7.34}, {"measurement": "Tmax", "setting": "[5]", "result": 11, "unit": "h"}, {"measurement": "Cmax", "setting": "[6]", "result": 2.36, "unit": "µM"}, {"measurement": "AUC", "setting": "[7]", "result": 50.8, "unit": "µM·h"}]}
{"smiles": "O=C1Nc2ccc(Cl)cc2[C@@](/C=C/C2CC2)(C(F)(F)F)N1", "values": [{"measurement": "IC90", "setting": "[3]", "result": 0.027, "unit": "µM"}, {"measurement": "IC90", "setting": "[1]", "result": 0.0021, "unit": "µM"}, {"measurement": "pIC50", "setting": "[2]", "result": 7.64}]}
{"smiles": "CCC#CC1(C(F)(F)F)OCC(=O)Nc2ccc(Cl)cc21", "note": "(centres undefined)", "values": [{"measurement": "IC90", "setting": "[3]", "result": 1.76, "unit": "µM"}, {"measurement": "IC90", "setting": "[1]", "result": 0.0091, "unit": "µM"}, {"measurement": "pIC50", "setting": "[2]", "result": 6.02}]}
{"smiles": "O=C1COC(/C=C/C2CC2)(C(F)(F)F)c2cc(Cl)ccc2N1", "note": "(centres undefined)", "values": [{"measurement": "IC90", "setting": "[3]", "result": 0.362, "unit": "µM"}, {"measurement": "IC90", "setting": "[1]", "result": 0.0039, "unit": "µM"}, {"measurement": "pIC50", "setting": "[2]", "result": 6.97}]}
